Results reported in US20210162078A1, “METHOD FOR DIAGNOSIS OF DO[…] MOVEMENT DISORDERS” (LikeMinds, Inc., priority 2018, published 2021).
Where two headings read alike, the source gives them in different places.

Legend:
[1] = biological target: T1, DAT in the striatum (Homo sapiens, UniProt Q01959); assay: DaT2020 SPECT study: striatal binding ratio over time after IV injection; format: in vivo; conditions: for specific binding ratio reached, as % of average stable binding ratio: within six min after injection
T1 construct: from tissue; host or cells: striatum of living subjects (in vivo SPECT)
Description: The results obtained from administering lower doses of radiolabeled_DaT2020 (5.3 mCi) were modeled from the data obtained using the 8 mCi dose and a 3-headed camera. Within six min after injection of radiolabeled DaT2020, the specific binding ratios of Parkinson's patients and the healthy volunteer group had reached 90% and 74% of the average stable binding ratio of 1.32 and 1.64, respectively, during the previously determined imaging time of 15 min to 45 min post-administration. In contrast, DaTscan takes least 180 min to reach a stable binding ratio.
The subjects used in the study were healthy volunteers (HV) and those with at least mild Parkinson's disease (PD) (Seibyl at al. (2008) “ALTROPANE SPECT in Parkinson's disease patients and healthy controls” (poster). Abs. Movement Dis. Soc. 12th Internat. Con. Parkinson's Disease and Movement Disorders). All subjects were evaluated by a clinician using validated measures to determine if there is evidence of a movement disorder. Any subject using an anti-parkinsonian medication abstained from its use for at least 12 hr prior to the movement disorder evaluation. […]
ROIs were determined using data obtained from about 24 min to 30 min after dose administration, with individual subject ROI sampling of the left and right caudate and putamen and an occipital background region. […]
To determine the striatal binding ratios (SBR) extract total counts within the ROI, total volume, and count density (counts/voxel) from each scan. SBR is calculated as the density of counts (counts per voxel per min) in the striatal region minus the counts in the occipital cortex (background) divided by the density of counts in the occipital background region. The mean striatal SBR scores are calculated as the mean of the left and right caudate and putamen SBR scores.
DaT2020 SBR data over time were abstracted by reading the graphics showing SBR over time for PD patients (Seibyl and Merck, ibid., Appendix 1) (the first scan of two was read), and in Appendix 2 for healthy volunteers (Seibyl and Merck, ibid., Appendix 2).

[2] = biological target: T1, DAT in the striatum; conditions: imaging time 15 min to 45 min post-administration, cited from earlier work
[3] = Clinical safety and radiation dose of radiolabeled DaT2020 bolus injection; format: in vivo, human
Description: Such buffers include, but are not limited to, ethanol (solvent), sodium hydroxide and acetic acid (pH adjustment), sodium chloride injection (isotonic vehicle). The formulation to be administered as a bolus injection has been shown in sponsored clinical trials to be safe containing a dose of up to about 8 mCi to 10 mCi of radiolabeled DaT2020 and delivered in a total volume of about 2.5 mL to about 5 mL.
The radioactivity of the dose of radiolabeled DaT2020 or of its radiolabeled derivatives, can be determined one with skill in the art, e.g. by a nuclear medicine imaging technician. In addition, the total radioactivity of the actual administered dose is of relevance and not the volume administered to achieve this dose. The exact radioactive dose of the tracer administered is determined by calculating the difference between the radioactivity in the syringe and delivery system before and after injection. After the dose is delivered, the syringe is filled with a volume of saline equal to the administered dose volume. The syringe content is recounted under the same conditions as used to determine the dose; separately. […]

[4] = biological target: T2, DAT (Homo sapiens, UniProt Q01959); assay: Binding selectivity of DaT2020 for DAT over SERT
Target sequence in this assay (Q01959 whole entry, species assumed): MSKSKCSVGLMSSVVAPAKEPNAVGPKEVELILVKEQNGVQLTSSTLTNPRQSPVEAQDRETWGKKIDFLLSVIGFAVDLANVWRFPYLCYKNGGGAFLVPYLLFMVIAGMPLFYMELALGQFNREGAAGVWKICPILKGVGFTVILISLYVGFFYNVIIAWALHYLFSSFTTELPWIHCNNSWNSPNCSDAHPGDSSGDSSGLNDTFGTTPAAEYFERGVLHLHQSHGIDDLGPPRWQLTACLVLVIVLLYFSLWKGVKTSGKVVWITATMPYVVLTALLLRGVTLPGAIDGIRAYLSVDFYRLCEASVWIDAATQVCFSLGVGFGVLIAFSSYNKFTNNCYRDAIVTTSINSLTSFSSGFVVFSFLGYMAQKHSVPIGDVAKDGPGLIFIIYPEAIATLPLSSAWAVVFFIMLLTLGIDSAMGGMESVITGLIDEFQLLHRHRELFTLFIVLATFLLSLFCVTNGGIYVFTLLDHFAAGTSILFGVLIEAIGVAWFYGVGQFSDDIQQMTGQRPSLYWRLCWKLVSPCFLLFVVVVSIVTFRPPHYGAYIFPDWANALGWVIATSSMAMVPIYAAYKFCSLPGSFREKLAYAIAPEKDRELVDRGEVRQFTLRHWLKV

[5] = biological target: T2, DAT; design: host or cells: brain tissue in vivo; conditions: after binding to transporters other than DAT; package insert; cited from earlier work
Target sequence in this assay (Q01959 whole entry): as the sequence (Q01959 whole entry, species assumed) above

[6] = biological target: T1, DAT in the striatum; conditions: cited from earlier work; for time after injection to stable binding to striatal DAT: DaTscan, IV injection, SPECT
[7] = biological target: T2, DAT; conditions: DAT sites per one SERT site; package insert; cited from earlier work
Target sequence in this assay (Q01959 whole entry, species assumed): as above

T1 sequence (Q01959 whole entry): as the sequence (Q01959 whole entry, species assumed) above

## COC(=O)[C@H]1[C@@H](c2ccc(F)cc2)C[C@@H]2CC[C@H]1N2C/C=C/I [DaT2020, E-2β-carbomethoxy-3β-(4-fluorophenyl)-N-(3-iodo-E-allyl) nortropane]
[1]; Parkinson's patients
  specific binding ratio reached, as % of average stable binding ratio: 90%
[1]; healthy volunteer group
  specific binding ratio reached, as % of average stable binding ratio: 74%
[1]; radiolabeled DaT2020, IV injection, SPECT
  time after administration at which stable binding to DAT occurs: 15 min
[2]; Parkinson's patients
  average stable binding ratio (SBR): 1.32
[2]; healthy volunteer group
  average stable binding ratio (SBR): 1.64
[3]; dose of up to about 8 mCi to 10 mCi, total volume about 2.5 mL to about 5 mL
  safety of bolus injection in sponsored clinical trials: safe
[3]; for 5 mCi of radiolabeled DaT2020
  effective dose: approximately 4.3 mSv
[4]
  binding selectivity for DAT over SERT: 28 fold

## COC(=O)[C@H]1[C@@H](c2ccc(I)cc2)C[C@@H]2CC[C@H]1N2CCCF [DaTscan, N-ω-fluoropropyl-2β-carbomethoxy-3β-(4-iodophenyl) nortropane]
[5]
  DaTscan available for DAT transporter binding in the brain tissue: about 7%
[6]
  time after injection to stable binding to striatal DAT: 3 h
[6]; listed as [^123I]-FP-CIT
  time after injection to stable binding to striatal DAT: 3 h
[6]; after reaching stable binding 3 hr post-injection
  time for which binding remains stable: 3 h
[7]
  DAT sites bound for every one SERT site: two to three
